Test results as given in PubChem BioAssay (NCI).
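How tested: cells in 96-well plates exposed to compound for 48 hours at five concentrations. TGI denotes the concentration required for complete inhibition of growth.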

Tested on: HCT-116 colon
Assay: growth of human tumour cells (NCI), 48 h

| SMILES | TGI [µM] |
| --- | --- |
| CC1=CCC(C(C)(C)NC(=O)c2ccccc2)C/C1=N/O (stereo unspecified) | > 100 |
| Cc1c(/C=N/NC(=S)N2CCCCC2)c(=O)n(-c2ccccc2)n1C | > 100 |
| CCSC1=N/C(=C\c2ccco2)C(=O)N1 | > 100 |
| COc1ccc(-c2nc(Nc3ccccc3)sc2Cc2sc(Nc3ccccc3)nc2-c2ccc(OC)cc2)cc1 | > 100 |
| CCOC(=O)CCC(NC(=O)c1ccc(NC(OC)c2nc3cc(C(F)(F)F)ccc3nc2-c2ccccc2)cc1)C(=O)OCC (stereo unspecified) | 9.35 |
| CCCCOC/N=C(/N)NC#N | > 100 |
| C[C@@H]1CC[C@@H]2[C@@H](C1)O[C@@H]([C@@H](C)OCc1ccccc1)SC2(C)C | 34.5 |
| Cc1sc2nc3n(c(=O)c2c1C)N=CN(c1ccc(Cl)cc1)C3 | > 100 |
| COc1ccc2[nH]c3c(c2c1)[C@H]1CCC(C(C)(C)C)C[C@H]1[C@H]1C(=O)N(c2ccccc2)C(=O)[C@@H]31 (stereo partly specified) | > 100 |
| COc1cc(C2c3cc4c(cc3C(=O)C3CCC(=O)N32)OCO4)cc(OC)c1O (stereo unspecified) | > 50 |

Tested on: MALME-3M melanoma
Assay: growth of human tumour cells (NCI), 48 h

| SMILES | TGI [µM] |
| --- | --- |
| CCOC(=O)C1=C(OC(OCC)C(CC)[Se]c2ccccc2)CCC1 (stereo unspecified) | 56.7 |
| CCCc1cc(OC(=O)c2c(O)cc(OC)cc2CCC)cc(O)c1C(=O)O | 42.3 |
| Cc1ccc(-c2cc(-c3ccccc3)c(C#N)c(=O)[nH]2)cc1 | > 100 |
| O=[N+]([O-])c1ccc(-c2nn3c(C45CC6CC(CC(C6)C4)C5)nnc3s2)c(Cl)c1 | > 100 |
| O=[N+]([O-])c1cccc(Nc2nc(Cl)nc(Cl)n2)c1 | > 100 |
| CC(Cn1c2c(c3cc(O)ccc31)CCc1ccc(O)cc1-2)N(C)C (stereo unspecified) | 30.8 |
| O=C(Cn1c2ccc(Br)cc2c2nc3ccccc3nc21)Nc1ccccc1 | 79 |
| COc1ccc(-c2nc(-c3cnccn3)n(C3OC(CO)C(O)C3O)n2)cc1 (stereo unspecified) | > 10 |
| CC(=O)[C@H]1[C@H](O)C[C@@]2(C)[C@@H]3CCc4cc(O)c(OC5OC(CO)C(O)C(O)C5O)cc4C3(C)C(=O)C[C@]12C (stereo partly specified) | > 100 |
| COC(=O)[C@@](NC(=O)OCc1ccccc1)([C@H](C)O)C(F)(F)F | > 100 |
| CO/C(=N\N=C\c1ccc(Cl)c(Cl)c1)c1ccncc1 | > 10 |
| O=c1[nH][nH]c(=O)c2c1ccc1oc3ccccc3c12 | > 100 |
| COC(=O)/C=C(\C)CCC1SC1(C)C (stereo unspecified) | > 100 |
| C=C1C2=C(CCCC2)C(=O)OC12CCCCC2 | > 100 |
| COc1cc(OC)c2c(=O)c3cccc(C)c3n(C)c2c1 | > 100 |
| Cc1c(/C=N/NC(=S)N2CCCCC2)c(=O)n(-c2ccccc2)n1C | > 100 |
| CCSC1=N/C(=C\c2ccco2)C(=O)N1 | > 100 |
| COc1ccc(-c2nc(Nc3ccccc3)sc2Cc2sc(Nc3ccccc3)nc2-c2ccc(OC)cc2)cc1 | > 100 |
| CCOC(=O)CCC(NC(=O)c1ccc(NC(OC)c2nc3cc(C(F)(F)F)ccc3nc2-c2ccccc2)cc1)C(=O)OCC (stereo unspecified) | 31.3 |
| CCCCOC/N=C(/N)NC#N | > 100 |
| C[C@@H]1CC[C@@H]2[C@@H](C1)O[C@@H]([C@@H](C)OCc1ccccc1)SC2(C)C | 37.9 |
| Cc1sc2nc3n(c(=O)c2c1C)N=CN(c1ccc(Cl)cc1)C3 | > 100 |
| COc1ccc2[nH]c3c(c2c1)[C@H]1CCC(C(C)(C)C)C[C@H]1[C@H]1C(=O)N(c2ccccc2)C(=O)[C@@H]31 (stereo partly specified) | 40.4 |

Tested on: MCF7 breast
Assay: growth of human tumour cells (NCI), 48 h

| SMILES | TGI [µM] |
| --- | --- |
| CC(Cn1c2c(c3cc(O)ccc31)CCc1ccc(O)cc1-2)N(C)C (stereo unspecified) | 36.3 |
| Cc1cc(O)c(/C=N/C(=S)Nc2ccc(S(N)(=O)=O)cc2)c(=O)o1 | > 100 |
| COc1ccc(-c2nc(-c3cnccn3)n(C3OC(CO)C(O)C3O)n2)cc1 (stereo unspecified) | > 10 |
| CC(=O)[C@H]1[C@H](O)C[C@@]2(C)[C@@H]3CCc4cc(O)c(OC5OC(CO)C(O)C(O)C5O)cc4C3(C)C(=O)C[C@]12C (stereo partly specified) | > 100 |
| O=C(NCCN1CCCCC1)c1cccc(I)c1 | > 100 |
| CO/C(=N\N=C\c1ccc(Cl)c(Cl)c1)c1ccncc1 | > 10 |
| O=c1[nH][nH]c(=O)c2c1ccc1oc3ccccc3c12 | > 100 |
| COc1cc(OC)c2c(=O)c3cccc(C)c3n(C)c2c1 | > 100 |
| COC(=O)C(=O)C(C(=O)C(=O)Nc1ccc(C)cc1C)c1nc2ccc(Cl)cc2[nH]c1=O (stereo unspecified) | > 100 |
| CC1=CCC(C(C)(C)NC(=O)c2ccccc2)C/C1=N/O (stereo unspecified) | > 100 |
| Cc1c(/C=N/NC(=S)N2CCCCC2)c(=O)n(-c2ccccc2)n1C | > 100 |
| CCSC1=N/C(=C\c2ccco2)C(=O)N1 | > 100 |
| COc1ccc(-c2nc(Nc3ccccc3)sc2Cc2sc(Nc3ccccc3)nc2-c2ccc(OC)cc2)cc1 | > 100 |
| C[C@@H]1CC[C@@H]2[C@@H](C1)O[C@@H]([C@@H](C)OCc1ccccc1)SC2(C)C | 35.3 |
| COc1cc(C2c3cc4c(cc3C(=O)C3CCC(=O)N32)OCO4)cc(OC)c1O (stereo unspecified) | > 50 |

Tested on: HS 578T breast
Assay: growth of human tumour cells (NCI), 48 h

| SMILES | TGI [µM] |
| --- | --- |
| O=[N+]([O-])c1ccc(-c2nn3c(C45CC6CC(CC(C6)C4)C5)nnc3s2)c(Cl)c1 | > 100 |
| CC(Cn1c2c(c3cc(O)ccc31)CCc1ccc(O)cc1-2)N(C)C (stereo unspecified) | 46 |
| O=C(Cn1c2ccc(Br)cc2c2nc3ccccc3nc21)Nc1ccccc1 | 76.9 |
| O=C(NCCN1CCCCC1)c1cccc(I)c1 | > 100 |
| COC(=O)[C@@](NC(=O)OCc1ccccc1)([C@H](C)O)C(F)(F)F | > 100 |
| O=c1[nH][nH]c(=O)c2c1ccc1oc3ccccc3c12 | > 100 |
| COc1cc(OC)c2c(=O)c3cccc(C)c3n(C)c2c1 | > 100 |
| COC(=O)C(=O)C(C(=O)C(=O)Nc1ccc(C)cc1C)c1nc2ccc(Cl)cc2[nH]c1=O (stereo unspecified) | > 100 |
